From ChEMBL document CHEMBL1128795, “N-(Quinuclidin-3-yl)-2-(1-methyl-1H-indol-3-yl)-2-oxo-acetamide: a high affinity 5-HT3 receptor partial agonist” (Bioorg Med Chem Lett, 1995)

Key:
[1] = target: T1, Muscarinic acetylcholine receptor M2 (Homo sapiens, UniProt P08172); assay: Binding affinity against Muscarinic M2 receptor
T1 sequence (P08172 whole entry): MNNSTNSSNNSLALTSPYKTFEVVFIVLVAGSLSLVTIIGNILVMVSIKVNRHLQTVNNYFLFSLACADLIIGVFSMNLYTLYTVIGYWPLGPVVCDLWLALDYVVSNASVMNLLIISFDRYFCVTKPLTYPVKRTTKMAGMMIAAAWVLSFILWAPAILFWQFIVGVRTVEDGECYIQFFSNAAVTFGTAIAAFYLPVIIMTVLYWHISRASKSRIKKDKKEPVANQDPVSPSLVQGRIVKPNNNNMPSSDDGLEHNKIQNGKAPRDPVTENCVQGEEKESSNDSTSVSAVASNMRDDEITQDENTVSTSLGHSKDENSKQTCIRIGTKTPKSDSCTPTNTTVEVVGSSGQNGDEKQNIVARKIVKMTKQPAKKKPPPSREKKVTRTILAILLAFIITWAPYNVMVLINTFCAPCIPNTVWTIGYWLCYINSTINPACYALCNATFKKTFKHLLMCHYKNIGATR

[2] = target: T2, Alpha-1A adrenergic receptor (Homo sapiens, UniProt P35348); assay: Binding affinity against Alpha-1A adrenergic receptor
T2 sequence (P35348 whole entry): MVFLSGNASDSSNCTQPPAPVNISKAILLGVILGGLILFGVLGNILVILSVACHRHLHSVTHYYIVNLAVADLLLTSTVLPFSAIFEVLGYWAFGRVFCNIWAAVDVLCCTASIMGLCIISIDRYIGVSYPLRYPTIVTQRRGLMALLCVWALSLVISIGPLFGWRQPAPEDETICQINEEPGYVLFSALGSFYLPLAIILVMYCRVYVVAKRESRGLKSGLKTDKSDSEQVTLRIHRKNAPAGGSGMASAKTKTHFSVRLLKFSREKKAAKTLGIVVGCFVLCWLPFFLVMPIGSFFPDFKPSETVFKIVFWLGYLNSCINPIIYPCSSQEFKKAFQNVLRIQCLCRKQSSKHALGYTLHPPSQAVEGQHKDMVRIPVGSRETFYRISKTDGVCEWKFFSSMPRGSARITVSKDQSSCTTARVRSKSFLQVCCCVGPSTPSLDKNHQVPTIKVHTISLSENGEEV

[3] = target: T3, Serotonin 3 (5-HT3) receptor (Rattus norvegicus) (UniProt P35563+Q9JJ16); assay: Agonist activity against 2-methyl-5-HT induced bradycardia (von Bezold-Jarisch (B-J) reflex) in anesthetized rats; assay type: functional
[4] = target: T3, Serotonin 3 (5-HT3) receptor (Rattus norvegicus); assay: Tested for % decrease in heart rate relative to pre-dose control against 2-methyl-5-HT induced bradycardia (von Bezold-Jarisch (B-J) reflex) in anesthetized rats; assay type: functional; parameters: scale not given: the % may be the effect or the level left
[5] = target: 5-hydroxytryptamine receptor 1D (Homo sapiens, UniProt P28221); assay: Binding affinity against 5-Hydroxytryptamine 1D receptor
[6] = target: Beta-2 adrenergic receptor (Homo sapiens, UniProt P07550); assay: Binding affinity against Beta-2 adrenergic receptor
[7] = target: Beta-1 adrenergic receptor (Homo sapiens, UniProt P08588); assay: Binding affinity against Beta-1 adrenergic receptor
[8] = target: Muscarinic acetylcholine receptor M3 (Homo sapiens, UniProt P20309); assay: Binding affinity against Muscarinic M3 receptor
D(1A) dopamine receptor = D(1A) dopamine receptor (Homo sapiens, UniProt P21728); assay: Binding affinity against Dopamine D1 receptor
[9] = target: T4, Serotonin 3 (5-HT3) receptor (Rattus norvegicus, UniProt P35563+Q9JJ16); assay: Binding affinity against 5-Hydroxytryptamine 3 receptor; assay type: protein-complex assay
T4 sequence (P35563 whole entry): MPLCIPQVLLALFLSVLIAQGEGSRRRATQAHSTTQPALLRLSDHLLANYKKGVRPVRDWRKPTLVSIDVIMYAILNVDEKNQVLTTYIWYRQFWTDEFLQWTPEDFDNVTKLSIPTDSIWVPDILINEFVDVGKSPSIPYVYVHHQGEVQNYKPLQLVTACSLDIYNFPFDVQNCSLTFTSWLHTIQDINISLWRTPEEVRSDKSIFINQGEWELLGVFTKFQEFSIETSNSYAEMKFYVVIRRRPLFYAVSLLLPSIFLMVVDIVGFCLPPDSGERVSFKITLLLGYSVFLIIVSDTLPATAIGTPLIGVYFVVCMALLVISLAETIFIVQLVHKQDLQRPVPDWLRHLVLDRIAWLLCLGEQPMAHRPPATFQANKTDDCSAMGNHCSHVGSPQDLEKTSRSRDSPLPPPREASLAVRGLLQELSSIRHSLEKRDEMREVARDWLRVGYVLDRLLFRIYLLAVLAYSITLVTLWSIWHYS
T4 sequence (Q9JJ16 whole entry): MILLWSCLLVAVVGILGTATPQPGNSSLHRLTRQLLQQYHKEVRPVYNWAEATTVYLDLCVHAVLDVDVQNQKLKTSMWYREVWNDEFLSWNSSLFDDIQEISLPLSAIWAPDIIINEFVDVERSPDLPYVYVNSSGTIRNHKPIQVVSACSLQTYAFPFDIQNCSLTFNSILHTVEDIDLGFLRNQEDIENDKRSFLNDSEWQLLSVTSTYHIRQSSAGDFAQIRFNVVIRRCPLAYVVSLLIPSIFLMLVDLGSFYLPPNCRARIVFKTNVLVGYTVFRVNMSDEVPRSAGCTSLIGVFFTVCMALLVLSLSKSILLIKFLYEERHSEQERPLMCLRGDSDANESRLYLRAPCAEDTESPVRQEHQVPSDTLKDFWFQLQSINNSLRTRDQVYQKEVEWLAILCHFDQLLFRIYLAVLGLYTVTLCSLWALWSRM

[10] = target: T5, Alpha-2B adrenergic receptor (Homo sapiens, UniProt P18089); assay: Binding affinity against Alpha-2B adrenergic receptor
T5 sequence (P18089 whole entry): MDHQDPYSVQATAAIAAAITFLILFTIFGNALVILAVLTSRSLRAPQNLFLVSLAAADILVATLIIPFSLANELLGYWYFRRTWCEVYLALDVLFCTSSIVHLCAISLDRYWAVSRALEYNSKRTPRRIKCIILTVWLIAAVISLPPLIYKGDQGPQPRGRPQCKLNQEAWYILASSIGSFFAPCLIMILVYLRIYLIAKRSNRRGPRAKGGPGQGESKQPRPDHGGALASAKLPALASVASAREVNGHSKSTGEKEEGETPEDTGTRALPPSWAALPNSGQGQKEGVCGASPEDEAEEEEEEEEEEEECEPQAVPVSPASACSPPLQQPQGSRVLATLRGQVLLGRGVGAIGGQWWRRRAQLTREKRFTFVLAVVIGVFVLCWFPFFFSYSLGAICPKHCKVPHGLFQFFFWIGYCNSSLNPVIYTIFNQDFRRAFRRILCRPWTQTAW

D(2) dopamine receptor = D(2) dopamine receptor (Homo sapiens, UniProt P14416); assay: Binding affinity against Dopamine D2 receptor
Rattus norvegicus = species: Rattus norvegicus; assay: Tested for effective concentration against 5-HT mediated depolarization of isolated rat vagus nerve; assay type: functional
[11] = target: 5-hydroxytryptamine receptor 2A (Homo sapiens, UniProt P28223); assay: Binding affinity against 5-Hydroxytryptamine 2A receptor
5-hydroxytryptamine receptor 2A, sequence (P28223 whole entry): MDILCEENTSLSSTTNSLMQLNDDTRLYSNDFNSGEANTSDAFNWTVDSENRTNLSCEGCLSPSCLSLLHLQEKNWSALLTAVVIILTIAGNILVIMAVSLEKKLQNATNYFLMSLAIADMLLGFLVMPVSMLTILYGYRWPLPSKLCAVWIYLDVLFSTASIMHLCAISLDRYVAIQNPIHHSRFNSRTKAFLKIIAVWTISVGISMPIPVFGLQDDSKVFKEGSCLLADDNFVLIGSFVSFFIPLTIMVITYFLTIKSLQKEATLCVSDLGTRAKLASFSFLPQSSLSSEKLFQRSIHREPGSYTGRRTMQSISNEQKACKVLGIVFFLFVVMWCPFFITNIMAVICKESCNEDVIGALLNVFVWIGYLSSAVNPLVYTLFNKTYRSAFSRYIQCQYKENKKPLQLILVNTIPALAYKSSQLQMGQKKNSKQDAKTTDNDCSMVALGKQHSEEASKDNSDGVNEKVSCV

Beta-1 adrenergic receptor, sequence (P08588 whole entry): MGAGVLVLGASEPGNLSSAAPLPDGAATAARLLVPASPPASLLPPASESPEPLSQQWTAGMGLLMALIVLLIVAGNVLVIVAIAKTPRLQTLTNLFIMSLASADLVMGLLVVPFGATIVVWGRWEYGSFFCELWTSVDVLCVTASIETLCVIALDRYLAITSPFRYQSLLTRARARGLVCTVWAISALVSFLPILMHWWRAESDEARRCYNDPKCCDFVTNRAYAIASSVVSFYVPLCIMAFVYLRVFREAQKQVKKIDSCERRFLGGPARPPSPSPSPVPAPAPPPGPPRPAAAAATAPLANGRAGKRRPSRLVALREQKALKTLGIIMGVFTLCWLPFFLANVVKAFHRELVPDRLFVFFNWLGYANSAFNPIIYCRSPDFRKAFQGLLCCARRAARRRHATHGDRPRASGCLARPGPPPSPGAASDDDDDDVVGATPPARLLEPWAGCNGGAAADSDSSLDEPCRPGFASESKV
D(1A) dopamine receptor, sequence (P21728 whole entry): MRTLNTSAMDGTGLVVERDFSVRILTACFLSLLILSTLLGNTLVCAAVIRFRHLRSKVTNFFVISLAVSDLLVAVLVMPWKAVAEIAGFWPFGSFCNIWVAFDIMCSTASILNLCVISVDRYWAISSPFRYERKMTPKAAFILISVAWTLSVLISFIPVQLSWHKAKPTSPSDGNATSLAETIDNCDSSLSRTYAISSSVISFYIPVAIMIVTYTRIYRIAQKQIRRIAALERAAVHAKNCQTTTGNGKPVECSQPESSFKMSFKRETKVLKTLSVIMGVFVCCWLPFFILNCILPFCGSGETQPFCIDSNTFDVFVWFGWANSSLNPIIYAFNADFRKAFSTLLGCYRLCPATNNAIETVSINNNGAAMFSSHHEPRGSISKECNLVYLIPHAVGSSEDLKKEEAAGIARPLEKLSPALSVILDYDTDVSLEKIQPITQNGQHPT
D(2) dopamine receptor, sequence (P14416 whole entry): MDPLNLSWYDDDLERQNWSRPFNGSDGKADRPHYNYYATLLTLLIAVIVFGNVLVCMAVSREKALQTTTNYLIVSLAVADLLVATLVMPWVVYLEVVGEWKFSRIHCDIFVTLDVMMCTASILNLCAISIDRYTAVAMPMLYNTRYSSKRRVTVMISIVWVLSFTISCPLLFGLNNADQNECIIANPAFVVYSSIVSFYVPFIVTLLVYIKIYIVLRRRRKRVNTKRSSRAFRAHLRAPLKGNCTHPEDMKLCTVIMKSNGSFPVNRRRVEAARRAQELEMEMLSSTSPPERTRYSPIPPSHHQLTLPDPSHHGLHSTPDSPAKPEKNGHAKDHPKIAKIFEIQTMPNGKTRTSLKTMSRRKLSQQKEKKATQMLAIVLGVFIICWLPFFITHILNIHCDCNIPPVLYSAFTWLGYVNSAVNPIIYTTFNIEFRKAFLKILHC
Beta-2 adrenergic receptor, sequence (P07550 whole entry): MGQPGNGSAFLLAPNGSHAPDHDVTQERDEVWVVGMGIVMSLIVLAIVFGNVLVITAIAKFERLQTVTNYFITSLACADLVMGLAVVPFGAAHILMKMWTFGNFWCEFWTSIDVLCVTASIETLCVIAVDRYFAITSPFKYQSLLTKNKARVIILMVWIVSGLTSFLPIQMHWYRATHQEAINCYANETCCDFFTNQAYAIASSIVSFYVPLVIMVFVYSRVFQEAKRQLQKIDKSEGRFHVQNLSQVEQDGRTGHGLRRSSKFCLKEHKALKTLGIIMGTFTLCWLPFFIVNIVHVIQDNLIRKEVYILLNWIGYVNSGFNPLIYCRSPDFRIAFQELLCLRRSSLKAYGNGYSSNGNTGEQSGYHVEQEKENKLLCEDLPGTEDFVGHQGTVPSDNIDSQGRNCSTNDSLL
Muscarinic acetylcholine receptor M3, sequence (P20309 whole entry): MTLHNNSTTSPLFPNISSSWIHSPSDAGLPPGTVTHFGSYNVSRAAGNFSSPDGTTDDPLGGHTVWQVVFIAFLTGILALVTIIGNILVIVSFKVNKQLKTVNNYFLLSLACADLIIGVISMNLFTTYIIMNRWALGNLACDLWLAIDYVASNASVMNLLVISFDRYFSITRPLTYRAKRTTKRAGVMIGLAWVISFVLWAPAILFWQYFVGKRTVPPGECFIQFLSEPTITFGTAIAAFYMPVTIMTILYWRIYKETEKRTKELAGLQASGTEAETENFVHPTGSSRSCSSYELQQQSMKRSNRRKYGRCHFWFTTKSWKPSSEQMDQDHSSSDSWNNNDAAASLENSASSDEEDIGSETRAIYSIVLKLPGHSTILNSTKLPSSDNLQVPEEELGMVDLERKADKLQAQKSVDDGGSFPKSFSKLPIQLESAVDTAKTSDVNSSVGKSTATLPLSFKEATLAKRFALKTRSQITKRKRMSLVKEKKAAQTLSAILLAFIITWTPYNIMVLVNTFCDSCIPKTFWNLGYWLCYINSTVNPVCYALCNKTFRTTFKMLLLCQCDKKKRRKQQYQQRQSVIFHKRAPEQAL
5-hydroxytryptamine receptor 1D, sequence (P28221 whole entry): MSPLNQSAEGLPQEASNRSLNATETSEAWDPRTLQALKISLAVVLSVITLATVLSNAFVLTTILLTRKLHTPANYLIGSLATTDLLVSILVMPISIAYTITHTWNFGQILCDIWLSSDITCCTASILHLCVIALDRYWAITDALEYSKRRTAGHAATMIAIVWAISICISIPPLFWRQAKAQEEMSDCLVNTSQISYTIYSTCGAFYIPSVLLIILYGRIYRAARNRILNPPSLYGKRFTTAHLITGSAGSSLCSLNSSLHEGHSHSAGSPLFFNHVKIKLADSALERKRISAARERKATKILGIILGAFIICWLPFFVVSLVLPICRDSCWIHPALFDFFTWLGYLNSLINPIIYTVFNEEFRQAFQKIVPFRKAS

Compound | Ki [1] [µM] | Ki [2] [µM] | ED50 [3] [µg/kg] | Control [4] [%] | Ki [5] [µM] | Ki [6] [µM] | Ki [7] [µM] | Ki [8] [µM] | Ki (D(1A) dopamine receptor) [µM] | Ki [9] [µM] | Ki [10] [µM] | Ki (D(2) dopamine receptor) [µM] | EC50 (Rattus norvegicus) [µM] | Ki [11] [µM]
Cn1cc(C(=O)C(=O)N[C@H]2CN3CCC2CC3)c2ccccc21 | 50.1 | > 10 | 0.6 | 24 | 39.8 | > 10 | > 10 | 50.1 | > 100 | 0.000251 | 3.16 | > 100 | 0.0355 | 12.6
Cn1cc(C(=O)C(=O)N[C@@H]2CN3CCC2CC3)c2ccccc21 | 50.1 | 25.1 | 8.5 | 33 | > 100 | > 100 | > 100 | 31.6 | > 100 | 0.0126 | 25.1 | > 100 | 2.14 | 25.1
